What was measured:
[1] = system: barnyardgrass (Echinochloa crs-galli); experiment: Pre-emergent Test I herbicidal activity; assay type: in vivo
Procedure: Pre-emergent Test I Seeds of test species were planted into round plastic pots (5-inch diameter) containing sandy loam soil. After planting, all pots were sub-irrigated 16 h prior to compound application. Compounds were dissolved in a 97:3 v/v (volume/volume) mixture of acetone and dimethyl sulfoxide (DMSO) and diluted to the appropriate concentration in a final application solution containing water, acetone, isopropanol, DMSO and Agri-dex (crop oil concentrate) in a 59:23:15:1.0:1.5 v/v ratio and 0.02% w/v (weight/volume) of Triton X-155 to obtain the spray solution containing the highest application rate. The high application rate was serial diluted with the above application solution to provide delivery of the compound at rates 1/2×, 1/4× and 1/8× of the highest rate (equivalent to 4.0, 2.0, 1.0, and 0.5 kg/ha, respectively). Formulated compound (2.7 mL) was applied pipetted evenly over the soil surface followed by incorporation with water (15 mL). Following treatment, pots were returned to the greenhouse for the duration of the experiment. The greenhouse was programmed for an approximate 15 h photoperiod which was maintained at about 23-29° C. during the day and 22-28° C. during the night. Nutrients and water were added on a regular basis through surface irrigation and supplemental lighting was provided with overhead metal halide 1000-Watt lamps as necessary. Herbicidal effect ratings were obtained 14 days after treatment. All evaluations were made relative to appropriate controls on a scale of 0 to 100 where 0 represents no herbicidal effect and 100 represents plant death or lack of emergence from the soil.

[2] = system: Wheat and Barley and test plant species; experiment: Post-emergent Test III, herbicidal activity in wheat and barley (Table 17; visual injury, GR20/GR50/GR80/GR90); assay type: in vivo; conditions: 21 d; for Visual Growth Reduction (%) 21 Days After Application, CIRAR / Visual Growth Reduction (%) 21 Days After Application, GALAP / Visual Growth Reduction (%) 21 Days After Application, HORVS / Visual Growth Reduction (%) 21 Days After Application, KCHSC / Visual Growth Reduction (%) 21 Days After Application, LAMPU / Visual Growth Reduction (%) 21 Days After Application, MATCH / Visual Growth Reduction (%) 21 Days After Application, PAPRH / Visual Growth Reduction (%) 21 Days After Application, SASKR / Visual Growth Reduction (%) 21 Days After Application, SINAR / Visual Growth Reduction (%) 21 Days After Application, TRZAS / Visual Growth Reduction (%) 21 Days After Application, VERPE / Visual Growth Reduction (%) 21 Days After Application, VIOTR: post-emergent
Procedure: Post-emergent Test III. Seeds of the desired test plant species were planted in Sun Gro MetroMix® 306 planting mixture, which typically has a pH of 6.0 to 6.8 and an organic matter content of about 30 percent, in plastic pots with a surface area of 103.2 square centimeters (cm^2). When required to ensure good germination and healthy plants, a fungicide treatment and/or other chemical or physical treatment was applied. The plants were grown for 7-36 days (d) in a greenhouse with an approximate 14 hour (h) photoperiod which was maintained at about 18° C. during the day and 17° C. during the night. Nutrients and water were added on a regular basis and supplemental lighting was provided with overhead metal halide 1000-Watt lamps as necessary. The plants were employed for testing when they reached the second or third true leaf stage.
A weighed amount, determined by the highest rate to be tested, of each test compound was placed in a 25 mL glass vial and was dissolved in 4 mL of a 97:3 v/v mixture of acetone and DMSO to obtain concentrated stock solutions. […] The concentrated stock solutions obtained were diluted with 20 mL of an aqueous mixture containing acetone, water, isopropyl alcohol, DMSO, Agri-Dex crop oil concentrate, and X-77 surfactant in a 48:39:10:1.5:1.5:0.02 v/v ratio to obtain spray solutions containing the highest application rates. Additional application rates were obtained by serial dilution of 12 mL of the high rate solution into a solution containing 2 mL of 97:3 v/v mixture of acetone and DMSO and 10 mL of an aqueous mixture containing acetone, water, isopropyl alcohol, DMSO, Agri-Dex crop oil concentrate, and X-77 surfactant in a 48:39:10:1.5:1.5:0.02 v/v ratio to obtain 1/2×, 1/4×, 1/8× and 1/16× rates of the high rate. Compound requirements are based upon a 12 mL application volume at a rate of 187 liters per hectare (L/ha). Formulated compounds were applied to the plant material with an overhead Mandel track sprayer equipped with 8002E nozzles calibrated to deliver 187 L/ha over an application area of 0.503 square meters at a spray height of 18 inches (43 cm) above the average plant canopy height. Control plants were sprayed in the same manner with the solvent blank.
The treated plants and control plants were placed in a greenhouse as described above and watered by subirrigation to prevent wash-off of the test compounds. After 21 d, the condition of the test plants as compared with that of the untreated plants was determined visually and scored on a scale of 0 to 100 percent where 0 corresponds to no injury and 100 corresponds to complete kill. By applying the well-accepted probit analysis as described by J. Berkson in Journal of the American Statistical […], 48, 565 (1953) and by D. Finney in “Probit Analysis” Cambridge University Press (1952), the above data can be used to calculate GR20, GR50, GR80 and GR90 values, which are defined as growth reduction factors that correspond to the effective dose of herbicide required to kill or control 20 percent, 50 percent, 80 percent or 90 percent, respectively, of a target plant.

## COC(=O)c1nc(-c2ccc3ccn(C)c3c2)c(F)c(N)c1Cl [Compound 1.10]
[1]; 3.96 Kg ai/ha
  Visual Growth Reduction (%) 14 Days After Application, ECHCG: F (30-44)

## Nc1c(F)c(-c2cccc3cc[nH]c23)nc(C(=O)O)c1Cl [Compound 1.48]
[1]; 4 Kg ai/ha
  Visual Growth Reduction (%) 14 Days After Application, ECHCG: G (0-29)

## COC(=O)c1nc(-c2ccc(Cl)c3ccoc23)c(F)c(N)c1Cl [Compound 2.24]
[2]; CIRAR, 17.5 g ai/ha
  Visual Growth Reduction (%) 21 Days After Application, CIRAR: D (60-74)
[2]; CIRAR, 35 g ai/ha
  Visual Growth Reduction (%) 21 Days After Application, CIRAR: C (75-84)
[2]; CIRAR, 70 g ai/ha
  Visual Growth Reduction (%) 21 Days After Application, CIRAR: B (85-94)
[2]; CIRAR, dose for 50 percent growth reduction, probit analysis
  GR50, CIRAR: 14 g ai/ha
[2]; CIRAR, dose for 80 percent growth reduction, probit analysis
  GR80, CIRAR: 35 g ai/ha
[2]; CIRAR, dose for 90 percent growth reduction, probit analysis
  GR90, CIRAR: 57 g ai/ha
[2]; GALAP, 17.5 g ai/ha
  Visual Growth Reduction (%) 21 Days After Application, GALAP: D (60-74)
[2]; GALAP, 35 g ai/ha
  Visual Growth Reduction (%) 21 Days After Application, GALAP: B (85-94)
[2]; GALAP, 70 g ai/ha
  Visual Growth Reduction (%) 21 Days After Application, GALAP: B (85-94)
[2]; GALAP, dose for 50 percent growth reduction, probit analysis
  GR50, GALAP: 7 g ai/ha
[2]; GALAP, dose for 80 percent growth reduction, probit analysis
  GR80, GALAP: 23 g ai/ha
[2]; GALAP, dose for 90 percent growth reduction, probit analysis
  GR90, GALAP: 44 g ai/ha
[2]; HORVS, 17.5 g ai/ha
  Visual Growth Reduction (%) 21 Days After Application, HORVS: G (0-29)
[2]; HORVS, 35 g ai/ha
  Visual Growth Reduction (%) 21 Days After Application, HORVS: G (0-29)
[2]; HORVS, 70 g ai/ha
  Visual Growth Reduction (%) 21 Days After Application, HORVS: G (0-29)
[2]; HORVS, dose for 20 percent growth reduction, probit analysis
  GR20, HORVS: 66 g ai/ha
[2]; KCHSC, 17.5 g ai/ha
  Visual Growth Reduction (%) 21 Days After Application, KCHSC: D (60-74)
[2]; KCHSC, 35 g ai/ha
  Visual Growth Reduction (%) 21 Days After Application, KCHSC: C (75-84)
[2]; KCHSC, 70 g ai/ha
  Visual Growth Reduction (%) 21 Days After Application, KCHSC: B (85-94)
[2]; KCHSC, dose for 50 percent growth reduction, probit analysis
  GR50, KCHSC: 4 g ai/ha
[2]; KCHSC, dose for 80 percent growth reduction, probit analysis
  GR80, KCHSC: 33 g ai/ha
[2]; KCHSC, dose for 90 percent growth reduction, probit analysis
  GR90, KCHSC: 103 g ai/ha
[2]; LAMPU, 17.5 g ai/ha
  Visual Growth Reduction (%) 21 Days After Application, LAMPU: E (45-59)
[2]; LAMPU, 35 g ai/ha
  Visual Growth Reduction (%) 21 Days After Application, LAMPU: D (60-74)
[2]; LAMPU, 70 g ai/ha
  Visual Growth Reduction (%) 21 Days After Application, LAMPU: C (75-84)
[2]; LAMPU, dose for 50 percent growth reduction, probit analysis
  GR50, LAMPU: 15 g ai/ha
[2]; LAMPU, dose for 80 percent growth reduction, probit analysis
  GR80, LAMPU: 93 g ai/ha
[2]; LAMPU, dose for 90 percent growth reduction, probit analysis
  GR90, LAMPU: >140 g ai/ha
[2]; MATCH, 17.5 g ai/ha
  Visual Growth Reduction (%) 21 Days After Application, MATCH: G (0-29)
[2]; MATCH, 35 g ai/ha
  Visual Growth Reduction (%) 21 Days After Application, MATCH: G (0-29)
[2]; MATCH, 70 g ai/ha
  Visual Growth Reduction (%) 21 Days After Application, MATCH: G (0-29)
[2]; MATCH, dose for 50 percent growth reduction, probit analysis
  GR50, MATCH: 114 g ai/ha
[2]; MATCH, dose for 80 percent growth reduction, probit analysis
  GR80, MATCH: >140 g ai/ha
[2]; MATCH, dose for 90 percent growth reduction, probit analysis
  GR90, MATCH: >140 g ai/ha
[2]; PAPRH, 17.5 g ai/ha
  Visual Growth Reduction (%) 21 Days After Application, PAPRH: D (60-74)
[2]; PAPRH, 35 g ai/ha
  Visual Growth Reduction (%) 21 Days After Application, PAPRH: D (60-74)
[2]; PAPRH, 70 g ai/ha
  Visual Growth Reduction (%) 21 Days After Application, PAPRH: C (75-84)
[2]; PAPRH, dose for 50 percent growth reduction, probit analysis
  GR50, PAPRH: 24 g ai/ha
[2]; PAPRH, dose for 80 percent growth reduction, probit analysis
  GR80, PAPRH: 52 g ai/ha
[2]; PAPRH, dose for 90 percent growth reduction, probit analysis
  GR90, PAPRH: 77 g ai/ha
[2]; SASKR, 17.5 g ai/ha
  Visual Growth Reduction (%) 21 Days After Application, SASKR: D (60-74)
[2]; SASKR, 35 g ai/ha
  Visual Growth Reduction (%) 21 Days After Application, SASKR: B (85-94)
[2]; SASKR, 70 g ai/ha
  Visual Growth Reduction (%) 21 Days After Application, SASKR: B (85-94)
[2]; SASKR, dose for 50 percent growth reduction, probit analysis
  GR50, SASKR: 3 g ai/ha
[2]; SASKR, dose for 80 percent growth reduction, probit analysis
  GR80, SASKR: 28 g ai/ha
[2]; SASKR, dose for 90 percent growth reduction, probit analysis
  GR90, SASKR: 95 g ai/ha
[2]; SINAR, 17.5 g ai/ha
  Visual Growth Reduction (%) 21 Days After Application, SINAR: B (85-94)
[2]; SINAR, 35 g ai/ha
  Visual Growth Reduction (%) 21 Days After Application, SINAR: A (95-100)
[2]; SINAR, 70 g ai/ha
  Visual Growth Reduction (%) 21 Days After Application, SINAR: A (95-100)
[2]; SINAR, dose for 50 percent growth reduction, probit analysis
  GR50, SINAR: 6 g ai/ha
[2]; SINAR, dose for 80 percent growth reduction, probit analysis
  GR80, SINAR: 13 g ai/ha
[2]; SINAR, dose for 90 percent growth reduction, probit analysis
  GR90, SINAR: 19 g ai/ha
[2]; TRZAS, 17.5 g ai/ha
  Visual Growth Reduction (%) 21 Days After Application, TRZAS: G (0-29)
[2]; TRZAS, 35 g ai/ha
  Visual Growth Reduction (%) 21 Days After Application, TRZAS: G (0-29)
[2]; TRZAS, 70 g ai/ha
  Visual Growth Reduction (%) 21 Days After Application, TRZAS: F (30-44)
[2]; TRZAS, dose for 20 percent growth reduction, probit analysis
  GR20, TRZAS: 52 g ai/ha
[2]; VERPE, 17.5 g ai/ha
  Visual Growth Reduction (%) 21 Days After Application, VERPE: F (30-44)
[2]; VERPE, 35 g ai/ha
  Visual Growth Reduction (%) 21 Days After Application, VERPE: D (60-74)
[2]; VERPE, 70 g ai/ha
  Visual Growth Reduction (%) 21 Days After Application, VERPE: C (75-84)
[2]; VERPE, dose for 50 percent growth reduction, probit analysis
  GR50, VERPE: 30 g ai/ha
[2]; VERPE, dose for 80 percent growth reduction, probit analysis
  GR80, VERPE: 66 g ai/ha
[2]; VERPE, dose for 90 percent growth reduction, probit analysis
  GR90, VERPE: 100 g ai/ha
[2]; VIOTR, 17.5 g ai/ha
  Visual Growth Reduction (%) 21 Days After Application, VIOTR: E (45-59)
[2]; VIOTR, 35 g ai/ha
  Visual Growth Reduction (%) 21 Days After Application, VIOTR: D (60-74)
[2]; VIOTR, 70 g ai/ha
  Visual Growth Reduction (%) 21 Days After Application, VIOTR: C (75-84)
[2]; VIOTR, dose for 50 percent growth reduction, probit analysis
  GR50, VIOTR: 24 g ai/ha
[2]; VIOTR, dose for 80 percent growth reduction, probit analysis
  GR80, VIOTR: 78 g ai/ha
[2]; VIOTR, dose for 90 percent growth reduction, probit analysis
  GR90, VIOTR: >140 g ai/ha

## COC(=O)c1nc(-c2ccc3sccc3c2)cc(N)c1Cl [Compound 3.05]
[1]; 4 Kg ai/ha
  Visual Growth Reduction (%) 14 Days After Application, ECHCG: A (95-100)

From patent US20170050957A1, “4-AMINO-6-(HETEROCYCLIC)PICOLINATES AND 6-AMINO-2-(HETEROCYCLIC)PYRIMIDINE-4-CARBOXYLATES AND THEIR USE AS HERBICIDES” (Dow AgroSciences LLC, priority 2013, published 2017)
